Experimental data published in patent publication US4837316A, “Alkylamide derivatives with H2 -receptor antagonistic and cytoprotective action” (Fujirebio Kabushiki Kaisha, priority 1985, dated 1989).

Assays:
[1] = target: T1, Histamine H2-receptor (Cavia porcellus, UniProt P47747); experiment: Histamine H2-receptor antagonistic action (isolated right atrium, histamine response); conditions: isolated guinea-pig right atrium, 32° C., tested compound 1×10^-6 M or 1×10^-7 M, Van Rossum method; for Kb: read-out: pA2 (converted)
T1 construct: the right atrium was isolated rapidly; from tissue; host or cells: guinea pig right atrium (isolated organ)
Protocol: Histamine H2 -receptor antagonistic actions of the exemplified compounds were measured. Male Guinea-Pig weighing 300 to 350 g was killed by a blow on the head. After thoracotomy, the right atrium was isolated rapidly, and the surrounding tissues of the right atrium was carefully dissected. The preparation was mounted isometrically in 30 ml organ bath containing an oxygenated (O2 95%+CO2 5%) Krebs-Henselite solution at 32° C. 1 g of resting tension was loaded through the experiment. Contraction of the right atrium to histamine was measured with a force-displacement transducer, and heart rate was measured with a heart rate meter. After the control dose-response curve in the presence of tested compound (1×10^-6 M or 1×10^-7 M) was determined.
The pA2 value of each compound was determined from these two curves by the method of J. M. Van Rossum (Arch. Int. Pharmacodyn. Ther 143-299 (1963)).

[2] = system: gastric mucosal leasion; experiment: Cytoprotective action (gastric mucosal lesion by necrotizing agent 0.4N HCl+50% EtOH); assay type: in vivo, Male Donryu rats; conditions: Rattus norvegicus, po; 10 mg/kg P.O., 30 minutes before 5 ml/kg 0.4N HCl+50% EtOH; stomach taken 1 hour after; read-out: Repression % (inhibition % of total area of gastric mucosal leasion vs control)
Protocol: Cytoprotective actions of the exemplified compounds were examined.
Male Donryu rats weighing 150-250 g were used after fasting for 24 hours. 10 mg/kg P.O. of the test compound was administrated, and 5 ml/kg of a necrotizing agent (0.4N HCl+50% EtOH) was orally administrated after 30 minutes. After 1 hour from the administration of the necrotizing agent, its stomach was dissected out, and fixed with formalin. Total area of gastric mucosal leasion was measured, and compared with a control group to determine inhibition %.

T1 sequence (P47747 whole entry): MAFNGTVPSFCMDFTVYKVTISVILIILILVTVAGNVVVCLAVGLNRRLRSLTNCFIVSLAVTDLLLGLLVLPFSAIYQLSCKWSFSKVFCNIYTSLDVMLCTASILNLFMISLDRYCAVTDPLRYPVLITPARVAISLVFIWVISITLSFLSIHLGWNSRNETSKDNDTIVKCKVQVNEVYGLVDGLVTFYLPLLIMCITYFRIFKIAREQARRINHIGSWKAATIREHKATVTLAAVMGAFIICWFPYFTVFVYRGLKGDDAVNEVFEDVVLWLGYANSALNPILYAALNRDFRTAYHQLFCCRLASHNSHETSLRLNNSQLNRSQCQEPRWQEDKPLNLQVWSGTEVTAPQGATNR

Row | Structure (SMILES) | Kb [1] | pA2 [1] | inhibition in vivo at 10 mg/kg [2]
1 | O=C(CSCCCc1ccccc1)NCCCOc1cccc(CN2CCCCC2)c1 [Compound 14, N-[3-{3-(piperidinomethyl)phenoxy}propyl]-2-(3-phenylpropyl-1-thio)acetamide] |  |  | 55%
2 | O=C(CSCc1cccs1)NCCCOc1cccc(CN2CCCCC2)c1 [Compound 20] |  |  | 45%
3 | O=C(CSCc1ccc2ccccc2c1)NCCCOc1cccc(CN2CCCCC2)c1 [Compound 21, N-[3-{3-(piperidinomethyl)phenoxy}propyl]-2-(2-naphthylmethylthio)acetamide] |  |  | 60%
4 | O=C(CCCSCc1ccccc1)NCCCOc1cccc(CN2CCCCC2)c1 [Compound 30] |  |  | 62%
5 | O=C(CCCCCSCc1ccccc1)NCCCOc1cccc(CN2CCCCC2)c1 [Compound 35, N-[3-{3-(piperidinomethyl)phenoxy}propyl]-6-(benzylthio)hexylamide] |  |  | 61%
6 | O=C(CS(=O)(=O)Cc1ccccc1)NCCCOc1cccc(CN2CCCCC2)c1 [Compound 45, N-[3-{3-(piperidinomethyl)phenoxy}propyl]-2-(benzylsulfonyl)acetamide] |  |  | 72%
7 | O=C(C[S+]([O-])Cc1ccco1)NCCCOc1cccc(CN2CCCCC2)c1 (centres unmarked) [Compound 46, N-[3-[3-(piperidinomethyl)phenoxy}propyl]-2-(furfurylsulfinyl)acetamide] |  |  | 72%
8 | O=C(CS(=O)(=O)Cc1ccco1)NCCCOc1cccc(CN2CCCCC2)c1 [Compound 47, N-[3-[3-(piperidinomethyl)phenoxy]propyl]-2-(furfurylsulfonyl)acetamide] |  |  | 85%
9 | CC1CCCCN1Cc1cccc(OCCCNC(=O)CS(=O)(=O)Cc2ccoc2)c1 (centres unmarked) [Compound 74] | 631 nM |  | 50%
10 | O=C(CSCc1ccco1)NCCSCc1ccc(CN2CCCCC2)o1 [Compound 89] |  |  | 46%
11 | O=C(CSCc1ccco1)NCCSCc1ccc(C=CCN2CCCC2)s1 [Compound 93] |  |  | 43%
12 | O=C(CSCc1ccco1)NCCSCc1ccc(CN2CCCCC2)s1 [Compound 94] | 316 nM |  | 
13 | NC(N)=Nc1nc(CSCCNC(=O)CSCc2ccoc2)cs1 [Compound 104] | 200 nM |  | 50.6%
14 | NC(N)=Nc1nc(CSCCNC(=O)CSCc2ccccc2)cs1 [Compound 105] | 79.4 nM |  | 
15 | NC(N)=Nc1nc(CSCCNC(=O)CSCc2cccs2)cs1 [Compound 106] | 200 nM |  | 
16 | NC(N)=Nc1nc(CSCCNC(=O)CSCC2CCCCC2)cs1 [Compound 107] | 794 nM |  | 52.3%
17 | NC(N)=Nc1nc(CSCCNC(=O)CSCc2ccc3ccccc3c2)cs1 [Compound 108] |  |  | 51.2%
18 | NC(N)=Nc1nc(CSCCNC(=O)CSCc2ccccn2)cs1 [Compound 109] |  | 7.6 | 
19 | NC(N)=Nc1nc(CSCCNC(=O)CSCc2ccco2)cs1 [Compound 110] | 79.4 nM |  | 58%

Continued, in another order:

Row | Kb [1] | pA2 [1] | Structure (SMILES) | inhibition in vivo at 10 mg/kg [2]
20 | 31.6 nM |  | O=C(CSCc1ccccc1)NCCCOc1cccc(CN2CCCCC2)c1 [Compound 1, N-[3-{3-(piperidinomethyl)phenoxy}propyl]-2-(benzylthio)acetamide] | 59%
21 | 50.1 nM |  | COc1ccc(CSCC(=O)NCCCOc2cccc(CN3CCCCC3)c2)cc1 [Compound 12, N-[3-{3-(piperidinomethyl)phenoxy}propyl]-2-(4-methoxybenzylthio)acetamide] | 
22 | 12.6 nM |  | O=C(CSCC1CCCCC1)NCCCOc1cccc(CN2CCCCC2)c1 [Compound 16, N-[3-{3-(piperidinomethyl)phenoxy}propyl]-2-(cyclohexylmethylthio)acetamide] | 
23 | 50.1 nM |  | O=C(CSCc1ccco1)NCCCOc1cccc(CN2CCCCC2)c1 [Compound 19, N-[3-{3-(piperidinomethyl)phenoxy}propyl]-2-(furfurylthio)acetamide] | 63%
24 | 251 nM |  | O=C(C[S+]([O-])Cc1ccccc1)NCCCOc1cccc(CN2CCCCC2)c1 (centres unmarked) [Compound 44, N-[3-{3-(piperidinomehtyl)phenoxy}propyl]-2-(benzylsulfinyl)acetamide] | 73%
25 | 31.6 nM |  | O=C(CSCc1ccc(C(=O)O)cc1)NCCCOc1cccc(CN2CCCCC2)c1 [Compound 48, N-[3-{3-(piperidinomethyl)phenoxy}propyl]-2-(4-carboxylbenzylthio)acetamide] | 
26 | 31.6 nM |  | O=C(CSCc1ccoc1)NCCCOc1cccc(CN2CCCCC2)c1 [Compound 57, N-[3-{3-(piperidinomethyl)phenoxy}propyl]-2-(3-furylmethylthio)acetamide] | 69%
27 | 31.6 nM |  | CC(SCC(=O)NCCCOc1cccc(CN2CCCCC2)c1)c1ccco1 (centres unmarked) [Compound 58, N-[3-{3-(piperidinomethyl)phenoxy}propyl]-2-{1-(2-furyl)ethylthio}acetamide] | 
28 | 3.98 nM |  | Cc1ccc(CSCC(=O)NCCCOc2cccc(CN3CCCCC3)c2)o1 [Compound 69, N-[3-{3-(piperidinomethyl)phenoxy}propyl]-2-(5-methyl-furfurylthio)acetamid] | 59%
29 | 100 nM |  | CC1CCN(Cc2cccc(OCCCNC(=O)CS(=O)(=O)Cc3ccoc3)c2)CC1 [Compound 72] | 60%
30 | 50.1 nM |  | CC1CCCN(Cc2cccc(OCCCNC(=O)CS(=O)(=O)Cc3ccoc3)c2)C1 (centres unmarked) [Compound 73] | 88%
31 | 20 nM |  | COC(=O)c1ccc(CSCC(=O)NCCCOc2cccc(CN3CCCCC3)c2)o1 [Compound 75, N-[3-{3-(piperidinomethyl)phenoxy}propyl]-2-{(5-methoxycarbonyl)furfurylthio}acetamide] | 
32 | 7.94 nM |  | COc1ccc(CSCC(=O)NCCCOc2cccc(CN3CCCCC3)c2)nc1 [Compound 79] | 53%
33 | 20 nM |  | O=C(CSCc1cccc(Cl)n1)NCCCOc1cccc(CN2CCCCC2)c1 [Compound 82, N-[3-{3-(piperidinomethyl)phenoxy}propyl]-2-(6-chloro-2-pyridylmethylthio)acetamide] | 61%
34 | 25.1 nM |  | Cc1cccc(CSCC(=O)NCCCOc2cccc(CN3CCCCC3)c2)n1 [Compound 86] | 
35 | 100 nM |  | O=C(CSCc1ccco1)NCCCOc1cc(CN2CCCCC2)ccn1 [Compound 100] | 35%
36 | 15.8 nM |  | Cc1ccc(CSCC(=O)NCCCOc2cccc(CN3CCCCC3)c2)s1 [Compound 112, N-[3-{3-(piperidinomethyl)phenoxy}propyl]-2-{(5methyl-2-thienyl)methylthio}acetamide] | 
37 | 25.1 nM |  | O=C(CSCc1ccc(Cl)s1)NCCCOc1cccc(CN2CCCCC2)c1 [Compound 113, N-[3-{(piperidinomethyl)phenoxy}propyl]-2-{(5-chloro-2-thienyl)methylthio}acetamide] | 
38 | 39.8 nM |  | O=C(CSCc1ccsc1Cl)NCCCOc1cccc(CN2CCCCC2)c1 [Compound 114, N-[3-{3-(piperidinomethyl)phenoxy}propyl]-2-{(2-chloo-3-thienyl)methylthio}acetamide] | 
39 | 31.6 nM |  | CC(=O)Nc1ccsc1CSCC(=O)NCCCOc1cccc(CN2CCCCC2)c1 [Compound 116, N-[3-{3-(piperidinomethyl)phenoxy}propyl]-2-{(3-acetamide-2-thienyl)methylthio}acetamide] | 
